Laboratory results published in article PMC7473865, “Repertoire-scale determination of class II MHC peptide binding via yeast display improves antigen prediction” (Nature Communications, 2020).
Read-outs that look alike come from different tables or passages of the source. Ends that are not written are not given here. Peptide text beside a SMILES is read from it.

Biological target: T1, recombinant HLA-DR401 (HLA-DRA1*01:01, HLA-DRB1*04:01) (Homo sapiens, UniProt P01903+P01911, A100K/A169T/F76Y/I96L/K127E/L162R/M171V/N62H/P40V/Q125Y/R42H/S133A/S149N/S66Y/V115G/V209L/W38E)
T1 construct: poly-histidine (C); made in house; host or cells: High Five (Hi5) insect cells, baculovirus (pAcGP67a)
Test: biochemical
Assay type: binding

[1] = fluorescence polarization peptide competition, HLA-DR401, sheet Fig7, read-out: Measured IC50
[2] = HLA-DR401, fluorescence polarization competition, Fig3B, read-out: Measured IC50
[3] = estimated from two-point fluorescence polarization competition assay binding plots, HLA-DR401, N = 3 technical replicates per condition, read-out: IC50 (estimated)
[4] = SuppFig6C, fluorescence polarization competition, HLA-DR401, read-out: Measured IC50

`CC[C@H](C)[C@H](NC(=O)[C@H](C)NC(=O)[C@H](CC(=O)O)NC(=O)[C@H](Cc1ccc(O)cc1)NC(=O)[C@H](CC(C)C)NC(=O)[C@@H]1CCCN1C(=O)[C@@H](NC(=O)CNC(=O)[C@@H](N)CCC(=O)O)[C@@H](C)CC)C(=O)N[C@@H](CCCCN)C(=O)N[C@@H](CS)C(=O)N[C@@H](CCSC)C(=O)N[C@@H](CCCNC(=N)N)C(=O)N[C@H](C(=O)N[C@@H](Cc1ccccc1)C(=O)N[C@@H](Cc1ccccc1)C(=O)NCC(=O)N[C@@H](Cc1c[nH]c2ccccc12)C(=O)N[C@@H](CCCCN)C(=O)N[C@@H](CCC(=O)O)C(=O)O)[C@@H](C)O` gave an IC50 [1] of 61.4 nM.
Work on `CSCC[C@H](NC(=O)[C@H](Cc1ccc(O)cc1)NC(=O)CNC(=O)[C@@H](N)CCCCN)C(=O)N[C@@H](Cc1ccccc1)C(=O)N[C@@H](CCC(=O)O)C(=O)N[C@@H](CO)C(=O)N[C@@H](CCCCN)C(=O)N[C@@H](CO)C(=O)N[C@@H](CCSC)C(=O)N[C@@H](CCCCN)C(=O)N[C@@H](CC(C)C)C(=O)N[C@@H](CCCNC(=N)N)C(=O)N[C@H](C(=O)N[C@@H](CCC(N)=O)C(=O)O)[C@@H](C)O` yielded an IC50 (read-out: Measured IC50) of 38700 nM.
Work on `CC(C)C[C@H](N)C(=O)N[C@@H](Cc1ccccc1)C(=O)N[C@@H](CCC(=O)O)C(=O)N[C@@H](CCCCN)C(=O)N[C@@H](Cc1ccccc1)C(=O)N[C@@H](Cc1ccccc1)C(=O)N1CCC[C@H]1C(=O)N[C@@H](CO)C(=O)N[C@@H](CO)C(=O)N[C@@H](CO)C(=O)N[C@@H](Cc1ccc(O)cc1)C(=O)N[C@@H](CCCNC(=N)N)C(=O)N[C@@H](CCCNC(=N)N)C(=O)N1CCC[C@H]1C(=O)N[C@H](C(=O)O)C(C)C` yielded an IC50 [2] of over 50000 nM and an IC50 (read-out: Measured IC50) of over 50000 nM.
Molecule `CC[C@H](C)[C@H](NC(=O)CNC(=O)[C@@H](NC(=O)[C@H](CCSC)NC(=O)CNC(=O)[C@H](CCSC)NC(=O)[C@@H](NC(=O)[C@H](CC(N)=O)NC(=O)[C@H](CC(=O)O)NC(=O)[C@@H](NC(=O)[C@@H]1CCCN1C(=O)[C@H](CCC(=O)O)NC(=O)[C@@H](NC(=O)CNC(=O)[C@H](Cc1c[nH]c2ccccc12)NC(=O)[C@H](CC(N)=O)NC(=O)[C@H](CCC(N)=O)NC(=O)[C@H](Cc1ccccc1)NC(=O)[C@@H](N)CC(C)C)C(C)C)[C@@H](C)CC)C(C)C)[C@@H](C)CC)C(=O)N[C@@H](CC(C)C)C(=O)O` has an IC50 [1] of 2520 nM.
`CC[C@H](C)[C@H](NC(=O)[C@H](CCCCN)NC(=O)[C@H](CO)NC(=O)[C@@H](NC(=O)CNC(=O)[C@H](CC(N)=O)NC(=O)[C@@H](NC(=O)[C@H](CCCNC(=N)N)NC(=O)[C@@H](NC(=O)[C@H](Cc1ccc(O)cc1)NC(=O)[C@H](CC(C)C)NC(=O)[C@H](Cc1ccccc1)NC(=O)[C@@H](N)CCSC)C(C)C)[C@@H](C)O)[C@@H](C)O)C(=O)N[C@@H](CCCCN)C(=O)N[C@@H](CCSC)C(=O)N[C@@H](CCCCN)C(=O)N[C@@H](Cc1c[nH]c2ccccc12)C(=O)NCC(=O)N[C@@H](CCSC)C(=O)N[C@@H](CCC(=O)O)C(=O)O` showed an IC50 [1] of 6100 nM.
With `CSCC[C@H](NC(=O)[C@H](CO)NC(=O)[C@H](Cc1ccccc1)NC(=O)[C@H](CC(N)=O)NC(=O)[C@H](C)NC(=O)[C@@H](NC(=O)[C@H](Cc1ccccc1)NC(=O)CNC(=O)[C@H](Cc1ccc(O)cc1)NC(=O)[C@H](CCCNC(=N)N)NC(=O)[C@H](Cc1ccc(O)cc1)NC(=O)[C@H](Cc1ccccc1)NC(=O)[C@H](Cc1ccccc1)NC(=O)[C@@H](N)CO)C(C)C)C(=O)N[C@@H](CCC(=O)O)C(=O)O` the IC50 [2] was over 50000 nM and the IC50 (read-out: Measured IC50) was over 50000 nM.
Work on `CSCC[C@H](NC(=O)[C@H](CCCNC(=N)N)NC(=O)[C@@H](N)CO)C(=O)N[C@@H](CCC(N)=O)C(=O)N[C@@H](Cc1ccccc1)C(=O)N[C@@H](CO)C(=O)N[C@@H](CO)C(=O)N[C@@H](Cc1ccccc1)C(=O)N[C@H](C(=O)N[C@H](C(=O)N[C@@H](CC(N)=O)C(=O)N[C@H](C(=O)N[C@@H](CCCNC(=N)N)C(=O)NCC(=O)N[C@@H](CO)C(=O)O)C(C)C)C(C)C)[C@@H](C)O` yielded an IC50 (read-out: Measured IC50) of 3380 nM.
`CSCC[C@H](NC(=O)[C@H](CO)NC(=O)[C@@H](NC(=O)[C@H](Cc1ccccc1)NC(=O)[C@H](CC(N)=O)NC(=O)[C@@H](NC(=O)[C@@H](N)C(C)C)C(C)C)C(C)C)C(=O)N[C@@H](CCC(=O)O)C(=O)N[C@@H](Cc1ccccc1)C(=O)N[C@@H](CO)C(=O)N[C@@H](CC(C)C)C(=O)N[C@H](C(=O)N[C@@H](CC(=O)O)C(=O)N1CCC[C@H]1C(=O)N[C@@H](CCCNC(=N)N)C(=O)O)[C@@H](C)O` was tested, and the IC50 (read-out: Measured IC50) was 7970 nM.
Work on `CC(C)C[C@H](NC(=O)[C@H](C)NC(=O)[C@H](C)N)C(=O)N[C@@H](CC(N)=O)C(=O)N[C@H](C(=O)N[C@@H](CCC(=O)O)C(=O)N[C@@H](CCCNC(=N)N)C(=O)N[C@H](C(=O)N[C@@H](CS)C(=O)N[C@@H](Cc1c[nH]cn1)C(=O)N[C@@H](CS)C(=O)N[C@@H](Cc1c[nH]c2ccccc12)C(=O)N[C@@H](CCC(=O)O)C(=O)N[C@@H](CCC(=O)O)C(=O)NCC(=O)O)[C@@H](C)O)C(C)C` (H-AALNVERTCHCWEEG-OH) yielded an IC50 of 33.4 nM.
Work on `CC(C)C[C@H](NC(=O)[C@H](C)NC(=O)[C@H](C)N)C(=O)N[C@@H](CCCNC(=N)N)C(=O)N[C@@H](CCC(=O)O)C(=O)N[C@@H](CCC(=O)O)C(=O)N[C@@H](Cc1c[nH]cn1)C(=O)N[C@H](C(=O)N[C@@H](CS)C(=O)N[C@@H](CCCCN)C(=O)N[C@@H](CS)C(=O)N[C@@H](Cc1c[nH]c2ccccc12)C(=O)N[C@@H](CCC(=O)O)C(=O)N[C@@H](CCC(=O)O)C(=O)NCC(=O)O)[C@@H](C)O` (H-AALREEHTCKCWEEG-OH) yielded an IC50 of 36.9 nM.
For `CC(C)C[C@H](NC(=O)[C@H](C)NC(=O)[C@H](C)N)C(=O)N[C@@H](CO)C(=O)N[C@@H](CC(C)C)C(=O)N[C@@H](CCC(=O)O)C(=O)N[C@@H](CCCNC(=N)N)C(=O)N[C@@H](CO)C(=O)N[C@@H](CS)C(=O)N[C@@H](CCCCN)C(=O)N[C@@H](CS)C(=O)N[C@@H](Cc1c[nH]c2ccccc12)C(=O)N[C@@H](CCC(=O)O)C(=O)N[C@@H](CCC(=O)O)C(=O)NCC(=O)O` (H-AALSLERSCKCWEEG-OH), the IC50 was 24.9 nM.
Work on `CC(C)C[C@H](NC(=O)[C@H](C)NC(=O)[C@H](C)N)C(=O)N[C@H](C(=O)N[C@@H](CC(=O)O)C(=O)N[C@@H](CC(=O)O)C(=O)N1CCC[C@H]1C(=O)N[C@H](C(=O)N[C@@H](CS)C(=O)N[C@@H](CCCNC(=N)N)C(=O)N[C@@H](CS)C(=O)N[C@@H](Cc1c[nH]c2ccccc12)C(=O)N[C@@H](CCC(=O)O)C(=O)N[C@@H](CCC(=O)O)C(=O)NCC(=O)O)[C@@H](C)O)C(C)C` (H-AALVDDPTCRCWEEG-OH) yielded an IC50 of 29.3 nM.
`CC(C)C[C@H](NC(=O)CNC(=O)[C@H](CCCNC(=N)N)NC(=O)[C@H](CCC(=O)O)NC(=O)[C@H](CC(C)C)NC(=O)[C@@H](NC(=O)[C@H](Cc1c[nH]c2ccccc12)NC(=O)[C@H](C)NC(=O)[C@H](C)N)C(C)C)C(=O)N[C@@H](CS)C(=O)N[C@@H](CS)C(=O)N[C@@H](Cc1c[nH]c2ccccc12)C(=O)N[C@@H](CCC(=O)O)C(=O)N[C@@H](CCC(=O)O)C(=O)NCC(=O)O` (H-AAWVLERGLCCWEEG-OH) showed an IC50 [3] of 34 nM.
Molecule `CC(C)C[C@H](NC(=O)[C@H](CCC(=O)O)NC(=O)[C@H](CC(N)=O)NC(=O)[C@H](CC(C)C)NC(=O)[C@H](CCC(N)=O)NC(=O)[C@@H](NC(=O)[C@H](CO)NC(=O)[C@H](CO)NC(=O)[C@H](CS)NC(=O)[C@H](CO)NC(=O)[C@H](CC(C)C)NC(=O)[C@H](CCCNC(=N)N)NC(=O)[C@H](Cc1ccccc1)NC(=O)[C@H](CC(C)C)NC(=O)[C@H](CCC(N)=O)NC(=O)[C@@H]1CCCN1C(=O)[C@H](CC(C)C)NC(=O)[C@H](CC(=O)O)NC(=O)[C@H](CS)NC(=O)[C@@H](N)Cc1ccc(O)cc1)[C@@H](C)O)C(=O)O` (H-YCDLPQLFRLSCSSTQLNEL-OH) has an IC50 [1] of 39.3 nM.
In the case of AAANMDTSLPAWEEG, the IC50 is reported as 180 nM.
Work on AAEFRNEDGPLGEPG yielded an IC50 [4] of 79.9 nM.
Work on AAERKMSVLSAWEEG yielded an IC50 of 817 nM.
Molecule AAFFGWEWGPDGEPG has an IC50 (read-out: Measured IC50) of 5670 nM.
With AAFLGEWSLLSWEEG the IC50 [3] was under 10 nM.
In the case of AAGFKGEQGPKGEPG, the IC50 (read-out: Measured IC50) is reported as 2910 nM.
With AAGFKGEQGPKGGPG the IC50 (read-out: Measured IC50) was 12100 nM.
AAGFKGEQGPKGYPG was tested, and the IC50 [4] was 115 nM.
In the case of AAGFPGEQGPKGEPG, the IC50 [1] is reported as over 50000 nM and the IC50 (read-out: Measured IC50) is reported as over 50000 nM.
Molecule AAGVIDPTMLGWEEG has an IC50 of 29.3 nM.
Molecule AALGLDLRAYVWEEG has an IC50 [3] of 7000 nM.
With AARYATSKSKGWEEG the IC50 [3] was 9520 nM.
AASFLSDSVMGWEEG gave an IC50 [3] of under 10 nM.
AAVADDFSCRGWEEG was tested, and the IC50 was 47 nM.
AAVNDQLTVNSWEEG gave an IC50 [3] of 4500 nM.
